The results in this text go back to PMC3125149, “SCYX-7158, an Orally-Active Benzoxaborole for the Treatment of Stage 2 Human African Trypanosomiasis” (PLoS Neglected Tropical Diseases, 2011).

The nature of data set [1]: Pharmacokinetics in uninfected rats. Type of data set: in vivo, rat. The conditions noted are these: male, Sprague-Dawley, rat. As to the method: The blood distribution, CNS disposition and pharmacokinetics of SCYX-7158 were evaluated in infected or non-infected rodents following intravenous or oral administration of compounds. Pharmacokinetics and bioavailability of SCYX-7158 were also evaluated in non-infected beagle dogs and cynomolgus monkeys. In-life phases of non-infected rodent studies were performed at Vivisource (Waltham, MA); studies in non-naïve cynomolgus monkeys were performed by SNBL USA (Everett, WA). Male CD-1 mice (∼25 g), male Sprague-Dawley rats (∼225 g), or male cynomolgus monkeys (∼3–5 kg) were administered test article by either bolus intravenous injection (IV) or oral gavage. Animals in the IV groups received a single 2 mg/kg IV dose. Animals received oral doses of test articles as either single or twice daily doses ranging from 8 mg/kg to 50 mg/kg. All doses were administered as clear colorless solutions in either 50% (v/v) PEG 400: 20% (v/v) ethanol: 30% (v/v) carboxymethylcellulose (0.5% w/v in sterile water for injection) or 2% (v/v) ethanol: 5% (w/v) dextrose in sterile water for injection. […] For pharmacokinetic analysis, blood samples were collected from mice via cardiac puncture under terminal anaesthesia. Serial blood samples were collected from rats via a vascular access port located in the lateral saphenous vein. Mice and rats were euthanized in a CO2 chamber before collection of terminal blood samples or brain tissue. Blood samples were collected into polypropylene tubes containing K2EDTA anticoagulant and stored on ice until centrifuged for the preparation of plasma. Plasma was stored at −70°C. Whole brains were collected following decapitation, blotted dry, placed into polypropylene containers and then immediately frozen at approximately −70°C. CSF was collected from rats via cisterna magna puncture, placed in sterile polypropylene tubes, and stored at approximately −70°C. […] Treated samples were gently mixed at room temperature for 10 min, and then centrifuged at approximately 3000×g for 15 min at 15°C. The supernatants were transferred to 96-well plates or HPLC vials for analysis by LC-MS/MS. Pharmacokinetic parameters were calculated from composite mean plasma or tissue data using non-compartmental (oral and intravenous routes) and bi-exponential (intravenous route) analyses in Microsoft Excel.

The nature of data set [2]: Stability in plasma or brain homogenate. Type of data set: in vitro ADME. As to conditions: incubated with plasma or brain homogenate for 4 h at 37°C. As to the method: Binding to human or mouse plasma proteins or mouse brain homogenate was determined by rapid equilibrium dialysis (RED) (Pierce, Rockford, IL) using a 48-well plate-based format according to the manufacturer's instructions. Briefly, test compound at the required concentrations was added to fresh human or mouse plasma (Bioreclamation, Liverpool, NY) or freshly prepared mouse brain homogenate. Duplicate aliquots of each sample were transferred into the sample chambers of the RED devices, and dialysis buffer (BupH PBS) was added to the buffer chambers. The plates were sealed and incubated at 37°C for 4 h. After dialysis, samples collected from the buffer and tissue chambers were treated with ice-cold methanol (3 volumes for plasma, 4 volumes for brain) to precipitate proteins. The treated samples were centrifuged for 10 min at 3×10^3 g at 15°C. The supernatants were assayed for test compound by LC-MS/MS. Calibration standards and quality control samples were prepared in matched matrix and assayed with samples. Values for unbound and bound fractions and mass balance were calculated. Concordance of binding for each batch of plasma was confirmed by assay of warfarin, imipramine and carbamezapine. […] The stability of each oxaborole in the CNS tissue was evaluated by incubation in fresh rodent brain homogenate. […] Supernatants from the incubation mixtures were analyzed for parent compound by LC-MS/MS.

For another data set, the system named is T. b. gambiense 40R. Kind of data set: In vitro compound sensitivity assay (resazurin viability). Type of data set: cell-based. As to conditions: Trypanosoma brucei, 72 h. As to the method:
T. b. brucei was cultured in complete HMI-9 medium,[20] which contains 10% fetal bovine serum (FBS) (Invitrogen, Carlsbad, CA), 10% Serum Plus medium (SAFC Biosciences, Lenexa, KS), and 100 units/mL penicillin and 0.1 mg/mL streptomycin. The trypanosomes were propagated in T-25 vented cap flasks (Corning Inc., Lowell, MA) at 37°C and 5% CO2 with humidity. To ensure log growth phase, trypanosomes were sub-cultured at appropriate dilutions (typically 1∶100) every 2–3 days in fresh HMI-9 medium. T. b. rhodesiense parasites were grown in MEM medium with Earle's salts supplemented with 15% horse serum. For T. b. gambiense, the MEM medium was supplemented with 5% heat-inactivated fetal calf serum (FCS) and 15% human serum.[21] L929 mouse fibroblast cells (ATCC CCL1, American Type Culture Collection, Rockville, MD) were used to determine parasite versus mammalian cell selectivity. Cells were cultured in Dulbecco's Modified Eagle Medium (DMEM), supplemented with 10% FBS, L-glutamine and 100 units/mL penicillin and 0.1 mg/mL streptomycin. MDCKII-hMDR1 cells were generously provided by P. Borst at the Netherlands Kancer Institute. Cells were cultured in DMEM with Glutamax, 10% (v/v) FBS, and 100 units/mL penicillin and 0.1 mg/mL streptomycin. Cell monolayers were fed with cell culture media 24 h after seeding and used for permeability studies 3 days later.
(§1) Compounds to be tested were serially diluted in DMSO and added to 96-well plates to give final concentrations ranging from 5 to 0.01 µg/mL. T. b. brucei parasites in the log phase of growth were diluted in HMI-9 media and added to each well for a final concentration of 1×10^4 parasites per well. For the sensitivity assays using T. b. rhodesiense and T. b. gambiense, pararasites were cultured in MEM supplemented with Baltz components (8), diluted in the aforementioned culture media, and added to each well at a density of 1×10^3 cells/well. The final concentration of DMSO was 0.5% and the total volume was 100 µL/well. After a 72 h incubation, resazurin (Sigma-Aldrich, St. Louis, MO) was added to each well [20 µL of 25 mg/100 mL stock in phosphate buffered saline (PBS)] and incubated for an additional 4–6 h.[22] To assess cell viability, fluorescence was quantified using an EnVision Multilabel Plate Reader (Perkin Elmer, Waltham, MA) at an excitation wavelength of 530 nm and emission of 590 nm. Triplicate data points were averaged to generate sigmoidal dose-response curves and determine IC50 values using XLfit curve fitting software from IDBS (Guilford, UK). The IC50 is defined as the amount of compound required to decrease parasite or cell viability by 50% compared to those grown in the absence of the test compound. […]
On the technique in general: The colour change of resazurin is a common sign of viable cells or microbes.

Another data set concerns T. b. brucei. In words: Effect of serum on trypanocidal activity. Type of data set: cell-based. The conditions noted are these: 25% mouse serum or 50% bovine serum. How it is done:
as §1

Values after ≈ are worked out from the molar mass of the structure shown. Where two headings read alike, the source gives them in different places.

Broadly, the CL/F is the apparent clearance, not corrected for the fraction that reaches the circulation. For orientation: Cmax means the highest concentration seen after dosing. For orientation: Tmax means the time at which the peak concentration occurs. The term IC50 denotes the concentration needed to halve the response being measured. Low values mean higher potency, high ones lower potency. On to `CC1(C)OB(O)c2cc(NC(=O)c3ccc(F)cc3C(F)(F)F)ccc21` [SCYX-7158], for which the Kp in data set [1] (brain/plasma, 25 mg/kg oral, read-out: brain to plasma AUC0–24 h ratio) is 0.44. Further, the CL/F in data set [1] (plasma, 25 mg/kg oral) is 1.53 mL/min/kg. Also, the Cmax in data set [1] (25 mg/kg oral (nominal), plasma, read-out: Cmax) came out at 18200 ng/mL; in data set [1] (25 mg/kg oral, CSF, read-out: Cmax in the CSF), 1080 ng/mL; in data set [1] (25 mg/kg oral, brain, read-out: Cmax in the brain), 8500 ng/mL; in data set [1] (oral dose of 10 mg/kg SCYX-7158, plasma, read-out: Cmax), 14300 ng/mL. Besides, the AUC(0-t) in data set [1] (25 mg/kg oral, CSF, read-out: AUC0–24 h in the CSF) is 14.6 µg·h/mL; in data set [1] (25 mg/kg oral, brain, read-out: AUC0–24 h in the brain) it was 129 µg·h/mL; in data set [1] (25 mg/kg oral, plasma, read-out: AUC0–24 h) it was 291 µg·h/mL. For the same molecule, the Tmax in data set [1] (25 mg/kg oral, plasma) came to 8 h. Besides, in data set [2], the stability result is reported as “stable”. For the same molecule, the IC50 with T. b. gambiense 40R was found to be 0.363 µg/mL (≈ 0.989 µM). For the same molecule, in the data set on T. b. brucei, the “attenuation of in vitro IC50” value is given as 3–4 fold.
